Each structure is given as a SMILES string.

In experiment [1] the target is T1, human PHD2 (Homo sapiens (Human), UniProt Q9GZT9). Kind of experiment: Test 1: human PHD2 inhibitory activity, [14C]-2-oxoglutarate to [14C]-succinic acid radiometric assay with HIF-1α peptide. The format is biochemical. Particulars: test compound's concentration 1 μM; Test 1, [14C]-2-oxoglutarate radiometric assay; read-out: Percent inhibition (% at 1 μM). An outline of the steps:
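Lysate from HighFive insect cells expressing human PHD2 (4 μg/well) was incubated for 15 min at 37° C with a 19-residue HIF-1α peptide and [14C]-2-oxoglutarate. Unreacted 2-oxoglutarate was precipitated with DNPH and filtered off, and [14C]-succinic acid was counted. Inhibition was calculated relative to substrate-free and compound-free controls.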

Experiment [2] deals with T1, human PHD2. Kind of experiment: Test 2: human PHD2 inhibitory activity, fluorescence polarization assay of HIF-1α peptide proline hydroxylation. To be noted: for inhibition at 1 µM: test compound's concentration 1 μM, Test 2, fluorescence polarization assay, read-out: Percent inhibition (% at 1 μM); for IC50: human PHD2, fluorescence polarization assay, 20-min incubation at 30° C. The format is biochemical. In outline: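 Enzyme from lysate of cells expressing human PHD2 (NM_022051), 40 ng/well, added to compound and 19-residue HIF-1α peptide substrate; 20 min at 30° C., EDTA quench. Prolyl hydroxylation detected by HIF-OH antibody binding via fluorescence polarization; inhibition relative to compound-free wells.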
On the technique in general: In fluorescence polarisation assays a small probe gives low polarisation when free and higher when bound to something large.

T1 sequence (Q9GZT9 whole entry): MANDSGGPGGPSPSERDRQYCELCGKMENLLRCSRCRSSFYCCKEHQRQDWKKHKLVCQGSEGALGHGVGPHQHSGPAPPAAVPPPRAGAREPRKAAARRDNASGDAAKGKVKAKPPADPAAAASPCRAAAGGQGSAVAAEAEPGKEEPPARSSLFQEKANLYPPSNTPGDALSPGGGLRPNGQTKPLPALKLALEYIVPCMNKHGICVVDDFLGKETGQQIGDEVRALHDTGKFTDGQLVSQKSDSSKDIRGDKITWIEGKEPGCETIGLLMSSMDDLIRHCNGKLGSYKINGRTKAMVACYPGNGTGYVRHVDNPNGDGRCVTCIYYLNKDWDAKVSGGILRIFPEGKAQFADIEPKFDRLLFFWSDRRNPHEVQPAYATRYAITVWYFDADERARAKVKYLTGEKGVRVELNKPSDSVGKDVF

`Cc1ccc(Oc2ccc(CN3CC(C)(C)C(O)=C(C(=O)NCC(=O)O)C3=O)cn2)cc1` [Ex. 1-276]: the inhibition (in general, the change of the read-out against control, counted positive when it falls) at 1 µM was found to be 93% in experiment [1] and 92% in experiment [2].

`O=C(O)CNC(=O)C1=C(O)CCN(Cc2cc(-c3ccccc3)no2)C1=O` [Ex. 1-45]: the inhibition at 1 µM in experiment [1] worked out at 82%; in experiment [2] it was 88%.

`CC(C)(C)COCc1ccc(CN2CCC(O)=C(C(=O)NCC(=O)O)C2=O)cc1` [Ex. 1-232]: the inhibition at 1 µM stood at 89% in experiment [1] and 91% in experiment [2].

Take `O=C(O)CNC(=O)C1=C(O)CCN(Cc2cccc(OC(F)(F)F)c2)C1=O` [Ex. 1-68]: the inhibition at 1 µM amounted to 67% in experiment [1] and 66% in experiment [2].

Consider `COc1cc(CN2C(=O)C(C(=O)NCC(=O)O)=C(O)CC2(C)C)ccc1C(F)(F)F` [Ex. 1-191], for which the results for the inhibition at 1 µM in experiment [1] and in experiment [2] were 38% and 45%, respectively.

As for `O=C(O)CNC(=O)C1=C(O)C(c2ccccc2)CN(Cc2ccc(-c3ccccc3)cc2)C1=O` (centres unmarked) [Ex. 1-57], the inhibition at 1 µM in experiment [1] worked out at 58%; in experiment [2], 83%.

In the case of `O=C(O)CNC(=O)C1=C(O)CCN(Cc2ccc(C(F)(F)F)c(C(F)(F)F)c2)C1=O` [Ex. 1-120], the inhibition at 1 µM in experiment [1] stood at 69%; in experiment [2], 82%.

Regarding `O=C(O)CNC(=O)C1=C(O)CCN(C2CCC(Cc3ccccc3)CC2)C1=O` (centres unmarked) [Ex. 1-220], the results for the inhibition at 1 µM in experiment [1] and in experiment [2] were 72% and 82%, respectively.

For `O=C(O)CNC(=O)C1=C(O)CCN(Cc2ccc3c(c2)OC(F)(F)O3)C1=O` [Ex. 1-152], the inhibition at 1 µM was 82% in experiment [1] and 83% in experiment [2].

Consider `O=C(O)CNC(=O)C1=C(O)CCN(c2ccc(Oc3ccccc3)cc2)C1=O` [Ex. 1-40], for which the inhibition at 1 µM came out at 79% in experiment [1] and 91% in experiment [2].

Regarding `O=C(O)CNC(=O)C1=C(O)CC2(CCC2)N(Cc2ccc(-c3ccc(F)cc3)cc2)C1=O` [Ex. 1-178], the inhibition at 1 µM stood at 81% in experiment [1] and 92% in experiment [2].

Consider `O=C(O)CNC(=O)C1=C(O)C2(CCC2)CN(Cc2ccc(-c3ccccc3)cc2)C1=O` [Ex. 1-15], for which the inhibition at 1 µM in experiment [1] came out at 72%; in experiment [2], 86%.

Consider `O=C(O)CNC(=O)C1=C(O)[C@@H]2CCCC[C@@H]2N(Cc2ccc(-c3ccccc3)cc2)C1=O` [Ex. 1-51], for which the inhibition at 1 µM is 58% in experiment [1] and 73% in experiment [2].

With `O=C(O)CNC(=O)C1=C(O)CC2(CCCCC2)N(Cc2ccc(C(F)(F)F)nc2)C1=O` [Ex. 1-141], the inhibition at 1 µM worked out at 64% in experiment [1] and 62% in experiment [2].

Turning to `CC(c1ccc(-c2ccccc2)cc1)N1CCC(O)=C(C(=O)NCC(=O)O)C1=O` (centres unmarked) [Ex. 1-230], the inhibition at 1 µM in experiment [1] came out at 96%; in experiment [2], 95%.

For `CC(C)Oc1ccc(CN2C(=O)C(C(=O)NCC(=O)O)=C(O)CC2(C)C)cc1` [Ex. 1-228], the inhibition at 1 µM in experiment [1] amounted to 71%; in experiment [2], 64%.

On to `O=C(O)CNC(=O)C1=C(O)C2(CC2)CN(Cc2ccc(Br)cc2)C1=O` [Ex. 1-207], for which the inhibition at 1 µM in experiment [1] came out at 92%; in experiment [2], 93%.

As to `Cc1ccc(CN2CC3(CCOCC3)C(O)=C(C(=O)NCC(=O)O)C2=O)cc1` [Ex. 1-89], the inhibition at 1 µM in experiment [1] came out at 69%; in experiment [2], 72%.

As to `CC1(C)CC(O)=C(C(=O)NCC(=O)O)C(=O)N1Cc1ccc(OCC2CC2)c(F)c1` [Ex. 1-204], the inhibition at 1 µM in experiment [1] came to 69%; in experiment [2], 79%.

As for `O=C(O)CNC(=O)C1=C(O)CC2(CCCCC2)N(Cc2cnc(-c3ccccc3)s2)C1=O` [Ex. 1-112], the inhibition at 1 µM in experiment [1] turned out to be 68%; in experiment [2], 90%.

On to `O=C(O)CNC(=O)C1=C(O)CCN(Cc2ccc(-c3cccc(Cl)c3)cc2)C1=O` [Ex. 2-22], for which the inhibition at 1 µM in experiment [1] worked out at 95%; in experiment [2], 94%.

In the case of `O=C(O)CNC(=O)C1=C(O)CCN(Cc2ccc(Oc3cccc(OC(F)(F)F)c3)nc2)C1=O` [Ex. 1-287], the inhibition at 1 µM in experiment [1] came out at 94%. Further, in experiment [2], the IC50 (as a rule, the concentration that gives 50% inhibition) amounted to 0.045 µM and the inhibition at 1 µM came to 104%.

As to `O=C(O)CNC(=O)C1=C(O)CCN(Cc2ccc(OC(F)(F)F)c(Cl)c2)C1=O` [Ex. 1-159], the inhibition at 1 µM in experiment [1] came out at 78%; in experiment [2], 90%.

For the molecule `O=C(O)CNC(=O)C1=C(O)CCN(Cc2ccc(F)cc2)C1=O` [Ex. 1-139], the values for the inhibition at 1 µM in experiment [1] and in experiment [2] were 72% and 78%, respectively.

`CC(C)c1cccc(-c2ccc(CN3CCC(O)=C(C(=O)NCC(=O)O)C3=O)cc2)c1` [Ex. 2-9]: the inhibition at 1 µM is 78% in experiment [1] and 82% in experiment [2].

For `O=C(O)CNC(=O)C1=C(O)CCN(Cc2ccc(C(F)(F)F)c(C3CCC3)c2)C1=O` [Ex. 1-245], the inhibition at 1 µM in experiment [1] came out at 80%; in experiment [2], 78%.

On to `CC(C)(C)c1ccc(-c2ccc(CN3C(=O)C(C(=O)NCC(=O)O)=C(O)CC34CCOCC4)cc2)cc1` [Ex. 1-87], for which the inhibition at 1 µM in experiment [1] is 46%; in experiment [2] it was 86%.

On to `O=C(O)CNC(=O)C1=C(O)CCN(Cc2cccc(-c3ccccc3)c2)C1=O` [Ex. 1-24], for which the inhibition at 1 µM in experiment [1] amounted to 74%; in experiment [2], 84%.

Consider `O=C(O)CNC(=O)C1=C(O)CC(CCc2ccccc2)N(Cc2ccc(-c3ccccc3)cc2)C1=O` (centres unmarked) [Ex. 1-76], for which the inhibition at 1 µM in experiment [1] is 40%; in experiment [2], 79%.

Consider `CC1(C)CC(O)=C(C(=O)NCC(=O)O)C(=O)N1Cc1cnc(-c2ccccc2)s1` [Ex. 1-96], for which the inhibition at 1 µM worked out at 82% in experiment [1] and 86% in experiment [2].

On to `O=C(O)CNC(=O)C1=C(O)CC2(CCC2)N(Cc2ccc(OC(F)(F)F)cc2)C1=O` [Ex. 1-154], for which the figures for the inhibition at 1 µM in experiment [1] and in experiment [2] were 77% and 81%, respectively.

As for `COc1ccc(-c2ccc(CN3CCC(O)=C(C(=O)NCC(=O)O)C3=O)cc2)cc1` [Ex. 2-12], the inhibition at 1 µM was 93% in experiment [1] and 91% in experiment [2].

For the molecule `O=C(O)CNC(=O)C1=C(O)CCN(CCCCCc2ccccc2)C1=O` [Ex. 1-30], the inhibition at 1 µM in experiment [1] is 77%; in experiment [2], 83%.

As to `O=C(O)CNC(=O)C1=C(O)CCN(Cc2ccccc2-c2ccccc2)C1=O` [Ex. 1-25], the inhibition at 1 µM was determined as 72% in experiment [1] and 76% in experiment [2].

As for `CCOc1ccc(CN2CCC(O)=C(C(=O)NCC(=O)O)C2=O)cc1` [Ex. 1-71], the inhibition at 1 µM in experiment [1] stood at 81%; in experiment [2] it was 85%.

As to `CC1(C)CC(O)=C(C(=O)NCC(=O)O)C(=O)N1Cc1ccc(C(F)(F)F)c(OC(F)F)c1` [Ex. 1-192], the inhibition at 1 µM in experiment [1] is 48%; in experiment [2], 49%.

Take `Cc1ccc(CN2C(=O)C(C(=O)NCC(=O)O)=C(O)CC23CCCCC3)cc1` [Ex. 1-84]: the inhibition at 1 µM was 42% in experiment [1] and 67% in experiment [2].

As for `O=C(O)CNC(=O)C1=C(O)C2(CCOCC2)CN(Cc2cnc(-c3ccccc3)s2)C1=O` [Ex. 1-97], the inhibition at 1 µM stood at 89% in experiment [1] and 91% in experiment [2].

As for `O=C(O)CNC(=O)C1=C(O)CC2(CCCCC2)N(Cc2ccc(C(F)(F)F)cc2)C1=O` [Ex. 1-63], the inhibition at 1 µM in experiment [1] is 43%; in experiment [2], 69%.

Turning to `O=C(O)CNC(=O)C1=C(O)CCN(Cc2ccc(Oc3ccc(Cl)cc3)cc2)C1=O` [Ex. 1-265], the inhibition at 1 µM in experiment [1] worked out at 98%. In experiment [2], half-maximal inhibition (IC50) was put at 0.024 µM and the inhibition at 1 µM is 100%.

Take `CC1(C)CC(O)=C(C(=O)NCC(=O)O)C(=O)N1Cc1csc(-c2ccccc2)n1` [Ex. 1-281]: the inhibition at 1 µM in experiment [1] came to 70%; in experiment [2], 77%.

`O=C(O)CNC(=O)C1=C(O)C2(CC2)CN(Cc2ccc(OC(F)(F)F)cc2)C1=O` [Ex. 1-208]: the inhibition at 1 µM in experiment [1] came out at 90%; in experiment [2], 85%.

For `CC1(C)CN(Cc2ccc(-c3ccccc3)cc2)C(=O)C(C(=O)NCC(=O)O)=C1O` [Ex. 1-27], the inhibition at 1 µM in experiment [1] turned out to be 75%; in experiment [2], 89%.

In the case of `O=C(O)CNC(=O)C1=C(O)CCN(Cc2ccc(Sc3ccc(Cl)cc3)nc2)C1=O` [Ex. 1-261], the inhibition at 1 µM in experiment [1] came to 99%; in experiment [2] it was 97%.

Take `CC1(C)CC(O)=C(C(=O)NCC(=O)O)C(=O)N1Cc1ccc(Cl)c(Cl)c1` [Ex. 1-158]: the inhibition at 1 µM in experiment [1] was 67%; in experiment [2] it was 75%.

As to `O=C(O)CNC(=O)C1=C(O)CCN(Cc2ccc(-c3ccccc3)nc2)C1=O` [Ex. 1-73], the inhibition at 1 µM worked out at 99% in experiment [1] and 90% in experiment [2].

Turning to `O=C(O)CNC(=O)C1=C(O)CCN(Cc2ccc(-c3cccnc3)cc2)C1=O` [Ex. 2-7], the inhibition at 1 µM in experiment [1] is 88%; in experiment [2], 91%.

For `Cc1ccc(CN2CC3(CCCCC3)C(O)=C(C(=O)NCC(=O)O)C2=O)cc1` [Ex. 1-86], the inhibition at 1 µM worked out at 48% in experiment [1] and 71% in experiment [2].

As to `CC1(C)CC(O)=C(C(=O)NCC(=O)O)C(=O)N1Cc1ccc(OCC(F)(F)F)cc1` [Ex. 1-221], the figures for the inhibition at 1 µM in experiment [1] and in experiment [2] were 66% and 73%, respectively.

As to `O=C(O)CNC(=O)C1=C(O)CCN(c2cccc(Oc3ccccc3)c2)C1=O` [Ex. 1-39], the inhibition at 1 µM stood at 76% in experiment [1] and 86% in experiment [2].

Take `O=C(O)CNC(=O)C1=C(O)CC(c2ccccc2)N(Cc2ccccc2)C1=O` (centres unmarked) [Ex. 1-49]: the inhibition at 1 µM in experiment [1] and in experiment [2] was 55% in each case.

Values taken from patent US9422240B2, “Partially saturated nitrogen-containing heterocyclic compound” (TAISHO PHARMACEUTICAL CO., LTD, priority 2012, dated 2016).
